Structures are written as SMILES. Active and inactive are the calls of the source. No cut-off for these calls is given here.

We go through one compound from ChEMBL document CHEMBL6134853, “Design, Synthesis, and Biological Evaluation of Pyrrolo[1,2-a]quinoxalin-4(5H)-one Derivatives as Potent and Orally Available Noncovalent Bruton's Tyrosine Kinase (BTK) Inhibitors” (J Med Chem, 2025).

Series [1] is described as follows: Tmax in male Sprague-Dawley rat at 10 mg/kg, po measured up to 5 hrs by LC-MS/MS analysis. It is filed as ADME, organism-based. The settings on record: in vivo.
Series [2] deals with T1, Serine/threonine-protein kinase RIO3 (Homo sapiens) (UniProt O14730).
T1 sequence (whole entry): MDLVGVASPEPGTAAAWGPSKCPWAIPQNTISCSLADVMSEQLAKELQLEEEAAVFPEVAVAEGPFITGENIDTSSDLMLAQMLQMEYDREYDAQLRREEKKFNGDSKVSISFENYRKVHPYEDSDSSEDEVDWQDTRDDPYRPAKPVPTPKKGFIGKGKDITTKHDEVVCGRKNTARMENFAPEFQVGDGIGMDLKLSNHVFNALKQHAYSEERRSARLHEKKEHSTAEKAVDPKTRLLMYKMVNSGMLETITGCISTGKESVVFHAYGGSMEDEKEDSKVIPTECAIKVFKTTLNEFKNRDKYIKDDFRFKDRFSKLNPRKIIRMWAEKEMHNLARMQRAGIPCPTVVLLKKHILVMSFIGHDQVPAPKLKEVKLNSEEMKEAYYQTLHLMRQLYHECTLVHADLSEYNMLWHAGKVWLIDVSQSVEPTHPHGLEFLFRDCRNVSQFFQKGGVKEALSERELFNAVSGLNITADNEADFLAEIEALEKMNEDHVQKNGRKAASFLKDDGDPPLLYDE
Put plainly: Inhibition of RIOK3 (unknown origin) at 100 nM relative to control.

In series [3] the target is T2, Tyrosine-protein kinase BTK (Homo sapiens, UniProt Q06187). Put plainly: Inhibition of BTK (unknown origin) at 100 nM relative to control.
T2 sequence (Q06187 whole entry): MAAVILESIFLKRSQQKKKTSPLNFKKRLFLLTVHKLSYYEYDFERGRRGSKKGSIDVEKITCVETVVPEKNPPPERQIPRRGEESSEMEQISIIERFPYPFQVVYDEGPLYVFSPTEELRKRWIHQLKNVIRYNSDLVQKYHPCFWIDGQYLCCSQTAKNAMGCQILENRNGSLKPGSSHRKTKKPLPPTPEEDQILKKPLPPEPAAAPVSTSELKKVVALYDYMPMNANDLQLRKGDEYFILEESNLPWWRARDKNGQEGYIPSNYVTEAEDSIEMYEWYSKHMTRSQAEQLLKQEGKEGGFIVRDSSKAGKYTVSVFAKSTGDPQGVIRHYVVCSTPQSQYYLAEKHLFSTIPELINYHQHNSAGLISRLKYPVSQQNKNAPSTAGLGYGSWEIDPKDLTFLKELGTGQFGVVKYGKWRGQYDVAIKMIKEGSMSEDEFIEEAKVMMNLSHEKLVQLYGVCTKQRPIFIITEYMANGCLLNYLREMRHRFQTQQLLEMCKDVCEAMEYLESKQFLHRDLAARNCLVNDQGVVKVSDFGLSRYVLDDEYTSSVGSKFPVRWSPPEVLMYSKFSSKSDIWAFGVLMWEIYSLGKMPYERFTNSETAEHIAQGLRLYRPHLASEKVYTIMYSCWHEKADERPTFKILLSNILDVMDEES
For series [4], the target named is T3, 1-phosphatidylinositol 4,5-bisphosphate phosphodiesterase gamma-2 (Homo sapiens) (UniProt P16885).
T3 sequence (whole entry): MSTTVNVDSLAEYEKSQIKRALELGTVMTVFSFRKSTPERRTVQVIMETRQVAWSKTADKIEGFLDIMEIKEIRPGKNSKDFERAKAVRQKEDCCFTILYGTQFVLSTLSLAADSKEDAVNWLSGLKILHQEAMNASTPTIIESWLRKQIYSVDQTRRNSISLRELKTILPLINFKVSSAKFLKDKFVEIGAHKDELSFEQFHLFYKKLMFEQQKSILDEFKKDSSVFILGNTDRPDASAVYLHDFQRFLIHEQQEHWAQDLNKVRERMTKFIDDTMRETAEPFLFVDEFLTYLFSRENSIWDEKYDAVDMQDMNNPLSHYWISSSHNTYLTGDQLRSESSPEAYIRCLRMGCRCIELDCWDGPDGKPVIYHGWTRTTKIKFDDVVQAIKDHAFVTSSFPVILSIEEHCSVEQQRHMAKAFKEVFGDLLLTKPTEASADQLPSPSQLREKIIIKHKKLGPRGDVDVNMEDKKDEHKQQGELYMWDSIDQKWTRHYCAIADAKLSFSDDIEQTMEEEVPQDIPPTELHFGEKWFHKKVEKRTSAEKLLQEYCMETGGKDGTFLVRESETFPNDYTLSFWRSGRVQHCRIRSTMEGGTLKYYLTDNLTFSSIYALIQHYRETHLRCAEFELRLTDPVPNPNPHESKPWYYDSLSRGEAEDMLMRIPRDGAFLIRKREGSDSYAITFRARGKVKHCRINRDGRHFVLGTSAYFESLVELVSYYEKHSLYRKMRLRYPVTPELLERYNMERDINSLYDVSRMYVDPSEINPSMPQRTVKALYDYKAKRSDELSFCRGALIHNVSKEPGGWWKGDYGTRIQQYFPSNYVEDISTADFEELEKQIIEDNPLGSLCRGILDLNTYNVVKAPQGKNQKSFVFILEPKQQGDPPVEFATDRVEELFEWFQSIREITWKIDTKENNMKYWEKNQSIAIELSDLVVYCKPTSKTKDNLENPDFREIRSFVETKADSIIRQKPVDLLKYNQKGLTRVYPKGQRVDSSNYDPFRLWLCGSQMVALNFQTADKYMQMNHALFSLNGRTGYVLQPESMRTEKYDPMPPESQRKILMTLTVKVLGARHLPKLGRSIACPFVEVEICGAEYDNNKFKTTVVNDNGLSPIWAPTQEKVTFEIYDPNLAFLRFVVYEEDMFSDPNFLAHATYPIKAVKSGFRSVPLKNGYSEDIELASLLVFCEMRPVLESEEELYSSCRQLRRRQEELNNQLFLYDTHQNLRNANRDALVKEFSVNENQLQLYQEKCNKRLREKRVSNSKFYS
Put plainly: Inhibition of PLCgamma2 phosphorylation at Y1217 residue in anti-IgM induced human Ramos cells preincubated with compound for 4 hrs followed by anti-IgM induction and measured after 15 mins by Western blot analysis. Type of series: cell-based. As to conditions: dose <= 1.0 µM, time […].

The target in series [5] is T2, Tyrosine-protein kinase BTK. Put plainly: Inhibition of BTK phosphorylation at Y223 residue in anti-IgM induced human U-937 cells preincubated with compound for 4 hrs followed by anti-IgM induction and measured after 15 mins by Western blot analysis. It is filed as cell-based. As to conditions: dose <= 1.0 µM, time 255.0 min.
The target of series [6] is Phosphatidylinositol 4-phosphate 5-kinase type-1 alpha (Homo sapiens) (UniProt Q99755). Put plainly: Inhibition of PIP5K1A (unknown origin) at 100 nM relative to control.
Sequence of Phosphatidylinositol 4-phosphate 5-kinase type-1 alpha (Homo sapiens) (Q99755 whole entry): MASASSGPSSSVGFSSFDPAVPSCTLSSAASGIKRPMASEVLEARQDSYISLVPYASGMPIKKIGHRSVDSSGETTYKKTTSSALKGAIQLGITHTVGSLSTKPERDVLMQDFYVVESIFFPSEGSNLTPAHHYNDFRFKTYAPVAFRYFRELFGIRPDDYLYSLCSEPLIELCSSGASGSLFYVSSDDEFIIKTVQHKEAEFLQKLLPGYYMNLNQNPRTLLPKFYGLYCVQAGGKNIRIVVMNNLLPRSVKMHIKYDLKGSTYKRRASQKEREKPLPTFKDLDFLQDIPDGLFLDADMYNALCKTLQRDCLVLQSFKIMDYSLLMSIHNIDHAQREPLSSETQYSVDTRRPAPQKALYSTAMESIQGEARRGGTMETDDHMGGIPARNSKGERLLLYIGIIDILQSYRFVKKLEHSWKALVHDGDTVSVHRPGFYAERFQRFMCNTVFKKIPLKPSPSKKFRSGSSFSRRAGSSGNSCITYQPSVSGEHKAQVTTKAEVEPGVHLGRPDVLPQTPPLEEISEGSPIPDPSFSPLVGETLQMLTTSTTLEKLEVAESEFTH
Series [7] is described as follows: Cmax in male Sprague-Dawley rat at 10 mg/kg, po measured up to 5 hrs by LC-MS/MS analysis. Type of series: ADME, organism-based. As to conditions: in vivo.
Series [8] can be described thus: Toxicity in BALB/c mouse xenografted with human U-937 cells assessed as parenchymal injury in lung at 50 to 100 mg/kg, po administered once a day for 14 days by H and E staining based analysis. The settings on record: in vivo, 336 h, dose 50-100 mg/kg, time 14 day. It is filed as organism-based.
For the next series, the system named is U-937. Put plainly: Induction of apoptosis in human U-937 cells incubated for 2 days by Annexin V/PI staining based flow cytometry analysis. As to conditions: dose 1-10 µM, time 2.0 day. Type of series: functional, cell-based.

Consider `CC(C)(O)c1ccc2c(c1)[nH]c(=O)c1ccc(-c3cccc(-n4c(=O)[nH]c5c(F)cccc5c4=O)c3F)n12`, for which the Tmax in [1] is 30 min. Further, the inhibition result in series [2], in series [3] and in [6] was “Active” in each case. In addition, the inhibition entry in series [4] and in series [5] was “Dose-dependent-effect” each time. Moreover, the highest concentration (Cmax) in [7] turned out to be 0.0624 µg/mL. Also, the results for the Activity entry (in [8]; in the series on U-937) were “Non-toxic” and “Dose-dependent-effect”, respectively.
